Measurements: ChEMBL document CHEMBL5678803, “Selective blockade of TRPA1 channel attenuates pathological pain without altering noxious cold sensation or body temperature regulation” (Pain, 2011)
Activity calls are given as the source filed them. No cut-off for these calls is given here.

Tests used:
[1] = Cmax in rat at 2 mg/kg, po; type: ADME, organism-based; settings: in vivo
[2] = target: T1, Transient receptor potential cation channel subfamily V member 4 (Homo sapiens, UniProt Q9HBA0); test: Antagonist activity at human TRPV4 expressed in HEK293F cells assessed as inhibition of mOsmo-induced increase in intracellular Ca2+ level by FLIPR-based Ca2+ assay; type: cell-based
T1 sequence (Q9HBA0 whole entry): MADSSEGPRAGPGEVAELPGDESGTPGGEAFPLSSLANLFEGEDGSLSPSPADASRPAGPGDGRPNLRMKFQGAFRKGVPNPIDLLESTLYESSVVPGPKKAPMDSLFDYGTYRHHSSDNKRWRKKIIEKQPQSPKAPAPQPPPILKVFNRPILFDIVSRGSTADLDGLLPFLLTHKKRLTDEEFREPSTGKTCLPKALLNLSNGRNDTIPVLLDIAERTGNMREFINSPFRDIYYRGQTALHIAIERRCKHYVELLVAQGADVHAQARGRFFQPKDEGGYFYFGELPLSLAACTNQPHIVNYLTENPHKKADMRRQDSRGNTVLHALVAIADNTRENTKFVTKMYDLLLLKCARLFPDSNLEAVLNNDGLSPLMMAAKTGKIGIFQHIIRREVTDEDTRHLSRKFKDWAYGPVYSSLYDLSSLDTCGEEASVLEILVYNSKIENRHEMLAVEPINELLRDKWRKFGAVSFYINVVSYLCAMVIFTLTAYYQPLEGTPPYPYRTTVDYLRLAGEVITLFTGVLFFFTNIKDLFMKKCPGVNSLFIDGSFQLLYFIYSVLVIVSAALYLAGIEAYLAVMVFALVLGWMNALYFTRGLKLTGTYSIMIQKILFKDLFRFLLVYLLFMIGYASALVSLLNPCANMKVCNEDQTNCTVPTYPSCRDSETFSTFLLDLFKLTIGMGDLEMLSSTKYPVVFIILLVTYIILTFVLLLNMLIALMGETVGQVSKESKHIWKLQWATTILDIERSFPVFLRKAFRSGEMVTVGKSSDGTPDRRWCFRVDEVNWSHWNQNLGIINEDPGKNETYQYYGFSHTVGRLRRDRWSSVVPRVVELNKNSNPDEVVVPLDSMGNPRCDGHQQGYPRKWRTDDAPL

[3] = Chemical reactivity of compound to 13C-labelled La antigen by ALARM NMR spectroscopic analysis; type: physicochemical
[4] = target: T2, Transient receptor potential cation channel subfamily M member 8 (Homo sapiens, UniProt Q7Z2W7); test: Antagonist activity at human TRPM8 expressed in HEK293F cells assessed as inhibition of menthol-induced increase in intracellular Ca2+ level by FLIPR-based Ca2+ assay; type: cell-based
[5] = target: T3, Transient receptor potential cation channel subfamily V member 1 (Homo sapiens, UniProt Q8NER1); test: Antagonist activity at human TRPV1 expressed in HEK293F cells assessed as inhibition of capsaicin-induced increase in intracellular Ca2+ level by FLIPR-based Ca2+ assay; type: cell-based
T3 sequence (Q8NER1 whole entry): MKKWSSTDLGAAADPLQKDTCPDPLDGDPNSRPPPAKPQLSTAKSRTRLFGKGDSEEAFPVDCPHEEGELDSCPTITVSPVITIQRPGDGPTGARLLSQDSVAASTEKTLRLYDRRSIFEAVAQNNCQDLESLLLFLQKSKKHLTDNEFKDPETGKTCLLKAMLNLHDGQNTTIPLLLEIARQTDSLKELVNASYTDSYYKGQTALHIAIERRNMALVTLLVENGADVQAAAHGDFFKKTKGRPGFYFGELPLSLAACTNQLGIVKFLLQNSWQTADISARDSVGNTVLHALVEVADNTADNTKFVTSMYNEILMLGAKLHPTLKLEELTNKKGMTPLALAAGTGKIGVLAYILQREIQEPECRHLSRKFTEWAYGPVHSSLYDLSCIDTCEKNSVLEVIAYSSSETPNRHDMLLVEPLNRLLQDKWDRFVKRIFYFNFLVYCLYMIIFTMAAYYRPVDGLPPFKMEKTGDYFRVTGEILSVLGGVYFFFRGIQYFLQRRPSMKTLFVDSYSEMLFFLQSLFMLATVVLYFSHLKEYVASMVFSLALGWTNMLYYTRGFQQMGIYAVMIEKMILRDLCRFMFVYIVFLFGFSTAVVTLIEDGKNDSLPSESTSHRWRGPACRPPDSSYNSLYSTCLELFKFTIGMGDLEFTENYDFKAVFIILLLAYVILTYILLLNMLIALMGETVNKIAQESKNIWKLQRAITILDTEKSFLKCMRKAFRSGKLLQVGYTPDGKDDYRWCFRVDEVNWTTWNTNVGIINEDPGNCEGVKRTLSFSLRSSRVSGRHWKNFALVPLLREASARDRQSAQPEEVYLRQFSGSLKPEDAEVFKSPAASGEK

[6] = Toxicity in Sprague-Dawley rat assessed as effect on body temperature at 20.7 to 62.1 mg/kg, po measured after 480 mins by radiotelemetric analysis; type: organism-based; settings: in vivo, 8 h, dose 20.7-62.1 mg/kg
[7] = target: Transient receptor potential cation channel subfamily A member 1 (Rattus norvegicus, UniProt Q6RI86); test: Antagonist activity at rat TRPA1 expressed in HEK293F cells assessed as reduction in AITC-induced increase in intracellular Ca2+ level by FLIPR-based Ca2+ assay; type: cell-based
Transient receptor potential cation channel subfamily A member 1 (Rattus norvegicus, UniProt Q6RI86), sequence (Q6RI86 whole entry): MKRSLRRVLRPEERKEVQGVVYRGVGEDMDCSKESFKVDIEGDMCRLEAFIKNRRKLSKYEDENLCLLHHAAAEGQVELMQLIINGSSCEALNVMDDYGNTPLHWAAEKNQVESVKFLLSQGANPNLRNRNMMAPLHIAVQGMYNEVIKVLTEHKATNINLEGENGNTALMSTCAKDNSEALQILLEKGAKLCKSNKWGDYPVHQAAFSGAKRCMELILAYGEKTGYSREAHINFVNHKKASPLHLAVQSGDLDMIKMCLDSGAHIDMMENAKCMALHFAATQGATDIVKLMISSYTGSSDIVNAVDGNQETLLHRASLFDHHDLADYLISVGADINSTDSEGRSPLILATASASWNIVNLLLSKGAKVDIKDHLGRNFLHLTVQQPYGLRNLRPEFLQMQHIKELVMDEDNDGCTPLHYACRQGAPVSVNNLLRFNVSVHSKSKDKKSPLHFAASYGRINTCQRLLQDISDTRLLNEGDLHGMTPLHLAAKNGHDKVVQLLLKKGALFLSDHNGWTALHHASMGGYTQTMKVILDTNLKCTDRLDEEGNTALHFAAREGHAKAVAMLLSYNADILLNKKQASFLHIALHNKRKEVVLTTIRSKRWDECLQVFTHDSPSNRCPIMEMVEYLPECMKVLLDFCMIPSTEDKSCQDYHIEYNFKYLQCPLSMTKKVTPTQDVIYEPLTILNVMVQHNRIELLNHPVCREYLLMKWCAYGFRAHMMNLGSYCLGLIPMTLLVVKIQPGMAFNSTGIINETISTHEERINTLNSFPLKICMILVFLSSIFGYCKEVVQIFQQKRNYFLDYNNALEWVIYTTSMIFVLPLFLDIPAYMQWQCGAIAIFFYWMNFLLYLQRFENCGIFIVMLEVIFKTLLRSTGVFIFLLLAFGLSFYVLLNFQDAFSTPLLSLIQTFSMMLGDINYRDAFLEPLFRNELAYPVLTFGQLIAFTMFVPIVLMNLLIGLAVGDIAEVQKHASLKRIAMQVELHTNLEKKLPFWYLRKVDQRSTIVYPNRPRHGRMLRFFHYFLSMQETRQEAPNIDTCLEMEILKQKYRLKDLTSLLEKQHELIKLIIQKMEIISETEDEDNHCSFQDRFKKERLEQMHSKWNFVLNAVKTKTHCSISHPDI

[8] = target: T4, Transient receptor potential cation channel subfamily V member 3 (Homo sapiens) (UniProt Q8NET8); test: Activation of endogenous TRPV3 in human epithelial cells upto 100 micromol/L; type: cell-based; settings: Epithelial cell, dose <= 100.0 µmol/L
T4 sequence (whole entry): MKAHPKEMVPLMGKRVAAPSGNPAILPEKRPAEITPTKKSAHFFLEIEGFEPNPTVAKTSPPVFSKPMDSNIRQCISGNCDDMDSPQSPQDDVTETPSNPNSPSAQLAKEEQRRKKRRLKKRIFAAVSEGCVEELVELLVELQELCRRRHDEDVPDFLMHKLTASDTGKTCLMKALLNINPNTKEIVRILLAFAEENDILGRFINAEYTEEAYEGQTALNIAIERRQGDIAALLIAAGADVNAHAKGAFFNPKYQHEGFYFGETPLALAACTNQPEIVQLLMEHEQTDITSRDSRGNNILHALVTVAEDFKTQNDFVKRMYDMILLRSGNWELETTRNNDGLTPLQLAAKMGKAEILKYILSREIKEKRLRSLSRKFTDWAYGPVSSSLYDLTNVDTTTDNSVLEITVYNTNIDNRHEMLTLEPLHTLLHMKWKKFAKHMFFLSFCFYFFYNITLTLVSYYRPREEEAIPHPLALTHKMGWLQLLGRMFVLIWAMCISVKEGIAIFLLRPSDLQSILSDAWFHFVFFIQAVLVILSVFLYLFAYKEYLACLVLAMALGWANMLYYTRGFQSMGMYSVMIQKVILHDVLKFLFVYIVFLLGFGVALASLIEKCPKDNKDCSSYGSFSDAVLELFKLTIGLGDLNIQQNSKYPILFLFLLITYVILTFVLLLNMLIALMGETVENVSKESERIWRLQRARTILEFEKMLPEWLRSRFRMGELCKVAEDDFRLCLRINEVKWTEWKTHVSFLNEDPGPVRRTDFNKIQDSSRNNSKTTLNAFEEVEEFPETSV

[9] = Drug concentration in rat at 6.2 mg/kg, po measured after 60 mins; type: ADME, organism-based; settings: in vivo, read-out: Drug uptake
[10] = target: T3, Transient receptor potential cation channel subfamily V member 1; test: Activation of human TRPV1 expressed in HEK293F cells upto 100 micromol/L; type: cell-based; settings: dose <= 100.0 µmol/L
[11] = target: Melatonin receptor type 1A (Homo sapiens) (UniProt P48039); test: Inhibition of MT1 receptor (unknown origin) at 10 micromol/L by radioligand binding assay; settings: dose 10.0 µmol/L
Melatonin receptor type 1A (Homo sapiens), sequence (P48039 whole entry): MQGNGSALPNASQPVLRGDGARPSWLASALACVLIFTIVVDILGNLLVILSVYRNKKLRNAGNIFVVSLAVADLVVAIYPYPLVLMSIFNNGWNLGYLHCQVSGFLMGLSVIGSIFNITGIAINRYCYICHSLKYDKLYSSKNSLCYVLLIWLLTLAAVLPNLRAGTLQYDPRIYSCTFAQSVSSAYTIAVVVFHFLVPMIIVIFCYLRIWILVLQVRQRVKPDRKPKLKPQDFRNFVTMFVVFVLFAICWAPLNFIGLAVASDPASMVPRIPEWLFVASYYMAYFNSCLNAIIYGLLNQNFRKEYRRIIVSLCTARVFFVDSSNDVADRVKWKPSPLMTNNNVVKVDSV

[12] = target: Transient receptor potential cation channel subfamily A member 1 (Homo sapiens, UniProt O75762); test: Antagonist activity at recombinant human TRPA1 expressed in HEK293F cells assessed as reduction in AITC-induced increase in intracellular Ca2+ level by FLIPR-based Ca2+ assay; type: cell-based; settings: filed as antagonist
Transient receptor potential cation channel subfamily A member 1 (Homo sapiens, UniProt O75762), sequence (O75762 whole entry): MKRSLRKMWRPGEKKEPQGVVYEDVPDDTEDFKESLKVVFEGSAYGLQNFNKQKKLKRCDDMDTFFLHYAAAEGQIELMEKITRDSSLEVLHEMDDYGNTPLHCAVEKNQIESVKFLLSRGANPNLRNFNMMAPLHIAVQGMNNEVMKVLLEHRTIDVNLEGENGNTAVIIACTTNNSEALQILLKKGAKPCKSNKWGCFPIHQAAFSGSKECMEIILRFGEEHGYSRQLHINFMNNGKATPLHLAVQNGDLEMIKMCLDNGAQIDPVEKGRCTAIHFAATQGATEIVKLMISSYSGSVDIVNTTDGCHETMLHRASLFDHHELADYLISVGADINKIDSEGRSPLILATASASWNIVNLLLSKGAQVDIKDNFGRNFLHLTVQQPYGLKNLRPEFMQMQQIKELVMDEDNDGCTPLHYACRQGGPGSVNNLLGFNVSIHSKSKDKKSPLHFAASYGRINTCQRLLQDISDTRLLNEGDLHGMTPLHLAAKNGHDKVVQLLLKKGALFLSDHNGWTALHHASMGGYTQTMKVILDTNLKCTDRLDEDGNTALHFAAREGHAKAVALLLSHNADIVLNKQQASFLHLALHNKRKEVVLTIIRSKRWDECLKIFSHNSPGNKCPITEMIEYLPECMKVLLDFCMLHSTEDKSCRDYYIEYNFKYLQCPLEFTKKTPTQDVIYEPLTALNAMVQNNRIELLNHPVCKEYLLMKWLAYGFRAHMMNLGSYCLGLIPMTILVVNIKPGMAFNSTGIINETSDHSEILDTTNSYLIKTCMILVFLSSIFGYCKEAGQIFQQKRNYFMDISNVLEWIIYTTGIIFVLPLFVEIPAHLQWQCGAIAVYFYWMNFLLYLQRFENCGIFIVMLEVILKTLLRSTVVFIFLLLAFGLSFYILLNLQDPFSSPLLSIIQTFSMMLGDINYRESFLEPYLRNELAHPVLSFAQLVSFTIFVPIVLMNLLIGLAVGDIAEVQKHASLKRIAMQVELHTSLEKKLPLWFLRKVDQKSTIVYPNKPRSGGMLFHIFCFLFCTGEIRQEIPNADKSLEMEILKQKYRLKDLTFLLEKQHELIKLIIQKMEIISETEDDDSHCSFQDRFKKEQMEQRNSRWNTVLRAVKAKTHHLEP

[13] = target: Sodium-dependent noradrenaline transporter (Homo sapiens) (UniProt P23975); test: Inhibition of norepinephrine transporter (unknown origin) at 10 micromol/L by radioligand binding assay; settings: dose 10.0 µmol/L
Sodium-dependent noradrenaline transporter (Homo sapiens), sequence (P23975 whole entry): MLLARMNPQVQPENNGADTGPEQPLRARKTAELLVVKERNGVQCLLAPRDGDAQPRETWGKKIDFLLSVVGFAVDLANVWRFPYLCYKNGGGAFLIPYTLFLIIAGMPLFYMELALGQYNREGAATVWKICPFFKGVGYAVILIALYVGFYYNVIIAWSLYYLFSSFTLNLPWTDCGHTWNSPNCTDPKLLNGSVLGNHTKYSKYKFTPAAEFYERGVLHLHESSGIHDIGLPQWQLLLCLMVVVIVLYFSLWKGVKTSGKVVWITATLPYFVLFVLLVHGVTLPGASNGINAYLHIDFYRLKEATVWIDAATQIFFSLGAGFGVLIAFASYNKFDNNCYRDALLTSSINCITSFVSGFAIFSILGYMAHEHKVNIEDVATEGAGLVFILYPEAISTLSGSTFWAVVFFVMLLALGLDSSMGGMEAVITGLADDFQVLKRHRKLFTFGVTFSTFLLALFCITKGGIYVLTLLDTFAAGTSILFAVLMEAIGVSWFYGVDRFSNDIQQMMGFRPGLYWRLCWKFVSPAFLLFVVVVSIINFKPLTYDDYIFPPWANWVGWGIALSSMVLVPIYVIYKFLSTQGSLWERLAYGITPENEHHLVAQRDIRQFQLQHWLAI

[14] = Toxicity in Sprague-Dawley rat assessed as effect on mean arterial pressure; settings: in vivo
[15] = target: T2, Transient receptor potential cation channel subfamily M member 8; test: Activation of human TRPM8 expressed in HEK293F cells upto 100 micromol/L; type: cell-based; settings: dose <= 100.0 µmol/L
[16] = tested on: Rattus norvegicus; test: Analgesic activity in AITC-induced nocifensive response Sprague-Dawley rat model assessed as prevention of mustard oil-induced flinching behavior administered orally for 1 hrs; type: functional, organism-based; settings: dose 6.2-62.1 mg/kg, route po
[17] = target: T1, Transient receptor potential cation channel subfamily V member 4; test: Activation of human TRPV4 expressed in HEK293F cells upto 100 micromol/L; type: cell-based; settings: dose <= 100.0 µmol/L
[18] = Ratio of drug concentration in rat brain to plasma at 2 mg/kg, po; type: ADME, organism-based; settings: read-out: BPR
[19] = tested on: Rattus norvegicus; test: Antiallodynic activity in CCI-induced neuropathic pain Sprague-Dawley rat model assessed as attenuation of mechanical allodynia at 6.2 to 62.1 mg/kg, po administered with compound for 1 hrs and measured 10 to 14 days after surgery; type: functional, organism-based; settings: dose 6.2-62.1 mg/kg, time 241-337 hrs

CCC(=N\O)/C(C)=C/c1ccc(F)cc1 [A-079]
Cmax [1]: 720 nM
IC50 [2]: > 100 µM
Stability [3]: Stable
IC50 [4]: > 100 µM
IC50 [5]: > 100 µM
Activity [6]: Non-Toxic
IC50 [7]: 0.289 µM
Activity [8]: inactive
concentration at 1 h [9]: 1540 nM
Activity [10]: inactive
inhibition [11]: 31%
Activity [12]: Dose-Dependent Effect
inhibition [13]: 32%
Activity [14]: Non-Toxic
Activity [15]: inactive
Activity [16]: Dose-Dependent Effect
Activity [17]: inactive
Kp [18]: 0.75
Activity [19]: inactive
